# Test results reported in patent US8592421B2, “Cyclic bioisosters of purine system derivatives and a pharmaceutical composition based thereon” (priority 2003, dated 2013).
# Assays:
# thrombocytes = assay: ADP-induced aggregation of thrombocytes in vitro (Born method, plasma enriched with thrombocytes); assay type: cell-based, rabbit; details: 3-minute incubation, ADP 10^−5 M
# Protocol: The aggregation of thrombocytes was studied by the Born method based on determination of the changes in the optical density of plasma enriched with thrombocytes after its incubation with an aggregation inductor.
# Adenozinediphosphoric acid (ADP) was selected as an aggregation inductor, which in fact is an aggregation generator. Use was made of a sample (registration number 885) of the Sigma Diagnostics Company (USA) in final concentration of 10^−5 M.
# The experiments were carried out on male rabbits of the “Chinchilla” breed having a mass of 2.7±0.3 kg. 18-24 hours prior to the experiment they were deprived of feed while preserving free access to water.
# To obtain plasma enriched with thrombocytes, blood was taken from a cut of a marginal vein of the rabbit ear, the sample was stabilized with 3.8% of sodium citrate solution in a ratio of 9:1 and centrifuged at 200 g (1000 rev/min) for 10 minutes. The top supernatant layer enriched with thrombocytes was transferred by an automatic dropper into a silicone test tube and kept at 37° C. The plasma enriched with thrombocytes contained, on the average, […]. If this content exceeded the specified 3×10^8 blood platelets in 1 liter, this sample was diluted to the necessary concentration with plasma deprived of thrombocytes, which was obtained by centrifuging blood at 650 g during 10 minutes.
# The measurements of the optical density of the samples were made on two-channel aggregometer of the “Chronolog” Company (USA). A flask containing 490 mkl of plasma rich with thrombocytes was placed in a device, into which a magnetic agitator covered with Teflon was lowered. The index of maximum amplitude of aggregation (MA) in percent of a fall of the plasma optical density under effect of the aggregation inductor was recorded. The control index MA of plasma was compared with the MA of plasma incubated for 3 minutes with different concentrations of the compounds: from 10^−3 to 10^−7 in vitro experiments or with plasma obtained 15, 30, 60 and 120 minutes after intravenous administration of different doses of the compounds in vivo experiments.
# The process of aggregation of thrombocytes was recorded with the help of a computer; on the monitor screen the there were depicted curves reflecting changes of the optical density of the plasma enriched which was taken as a standard 100% compared to the optical density of the non-thrombocyte plasma taken for 0% content of thrombocytes.
# Under in vitro conditions a flask was filled with blood plasma enriched with thrombocytes, to which an aggregation inductor ADP was added at a concentration of 10^−5 M, incubated for 3 minutes, and then the compounds according to the invention were introduced directly into the flask. Their action by aggregation of thrombocytes was studied after 3-minute incubation in a wide range of concentrations from 10^−3 to 10^−7 M to minimum concentration of 10^−7M not inducing no effect of suppressing the aggregation.
# [1] = Chronic toxicity of suppositories: indexes of peripheral blood; assay type: in vivo, rats; set-up: Thrombocytes: unit not given here; details: male rats, suppositories rectally; for Basophiles / Juveniles: 1 month/2 months (one value given), control 0
smiles,measurement,setting,value
"Nc1ncc2c(=O)[nH][nH]c(=O)c2n1 [Compound 36, 2-amino-pyrimido[4,5-d]-6H-pyridazine-5,8-dione]","MA - fall of optical density of plasma, % to the standard","thrombocytes; 10^−3 M, control 60.8 ± 3.4",45.8 ± 2.3 %
same,"MA - fall of optical density of plasma, % to the standard","thrombocytes; 10^−4 M, control 60.0 ± 2.1",46.9 ± 2.4 %
same,"MA - fall of optical density of plasma, % to the standard","thrombocytes; 10^−5 M, control 52.5 ± 2.1",40.1 ± 2.0 %
same,"MA - drop of optical density, %","thrombocytes; 10^−6 M, control 52.8 ± 1.8",49.3 ± 2.6%
same,"MA - drop of optical density, %","thrombocytes; 10^−7 M, control 51.5 ± 2.1",49.7 ± 1.8%
"O=c1[nH][nH]c(=O)c2ncccc12.[Li] [Compound 6, lithium salt of pyrido[2,3-d]-6H-pyridazine-5,8-dione]","MA - fall of optical density of plasma, % to the standard","thrombocytes; 10^−3 M, control 60.8 ± 3.4",50.0 ± 1.9 %
same,"MA - fall of optical density of plasma, % to the standard","thrombocytes; 10^−4 M, control 60.0 ± 2.1",53.3 ± 2.2 %
same,"MA - fall of optical density of plasma, % to the standard","thrombocytes; 10^−5 M, control 52.5 ± 2.1",47.4 ± 2.0 %
same,"MA - drop of optical density, %","thrombocytes; 10^−6 M, control 52.8 ± 1.8",51.2 ± 3.2%
same,"MA - drop of optical density, %","thrombocytes; 10^−7 M, control 51.5 ± 2.1",50.7 ± 3.2%
"O=c1[nH]n([C@@H]2O[C@H](CO)[C@@H](O)[C@H]2O)c(=O)c2nc(O)cnc12.[Na].[Na] [Compound 23, disodium salt of 2-hydroxy-7-(β-D-ribofuranosile)pyrazine[2,3—Cl]-6H-pyridazine-5,8-dione]",Basophiles,[1]; 50 mg/kg,0%
same,Juveniles,[1]; 50 mg/kg,0%
same,Stab neutrophil,"[1]; 50 mg/kg, 1 month, control 0.8 ± 0.4",1.1 ± 0.5%
same,REE,"[1]; 50 mg/kg, 1 month, control 2.2 ± 0.4",1.7 ± 0.8 mm/h
same,Reticulocytes,"[1]; 50 mg/kg, 1 month, control 2.8%0.3",2.7 ± 0.3%
same,Eosinophiles,"[1]; 50 mg/kg, 1 month, control 4.0 + 0.3",3.6 ± 0.5%
same,Erythrocytes,"[1]; 50 mg/kg, 1 month, control 5.6 ± 0.1",5.7 ± 0.1 mln/mm^3
same,Hemoglobin,"[1]; 50 mg/kg, 1 month, control 10.5 ± 0.2",10.7 ± 0.1 mmol/L
same,Leukocyte,"[1]; 50 mg/kg, 1 month, control 17.4 ± 1.3",15.5 ± 1.1 thousand/mm^3
same,Haematocrite,"[1]; 50 mg/kg, 1 month, control 45.9 ± 1.7",47.7 ± 1.2%
same,Average volume of erythrocytes,"[1]; 50 mg/kg, 1 month, control 81.4 ± 1.7",82.7 ± 1.6 Mkm^3
same,"Coagulation, time","[1]; 50 mg/kg, 1 month, control 152 ± 10.2",150 ± 15 s
same,Thrombocytes,"[1]; 50 mg/kg, 1 month, control 707 ± 23",659 ± 18
same,REE,"[1]; 50 mg/kg, 2 months, control 1.4 ± 0.2",1.5 ± 0.1 mm/h
same,Stab neutrophil,"[1]; 50 mg/kg, 2 months, control 2.4 ± 0.4",1.6 ± 0.2%
same,Reticulocytes,"[1]; 50 mg/kg, 2 months, control 2.9 ± 0.2",2.8 ± 0.1%
same,Eosinophiles,"[1]; 50 mg/kg, 2 months, control 4.4 + 1.2",4.0 ± 0.7%
same,Erythrocytes,"[1]; 50 mg/kg, 2 months, control 6.1 ± 0.1",6.0 ± 0.2 mln/mm^3
same,Hemoglobin,"[1]; 50 mg/kg, 2 months, control 11.4 ± 0.2",11.0 ± 0.1 mmol/L
same,Leukocyte,"[1]; 50 mg/kg, 2 months, control 19.1 ± 1.9",17.6 ± 1.2 thousand/mm^3
same,Haematocrite,"[1]; 50 mg/kg, 2 months, control 45.9 ± 1.8",46.5 ± 1.3%
same,Average volume of erythrocytes,"[1]; 50 mg/kg, 2 months, control 74.6 + 1.9",77.5 ± 1.7 Mkm^3
same,"Coagulation, time","[1]; 50 mg/kg, 2 months, control 316 ± 8",313 ± 17 s
same,Thrombocytes,"[1]; 50 mg/kg, 2 months, control 593 ± 14",586 ± 28
same,Basophiles,[1]; 500 mg/kg,0%
same,Juveniles,[1]; 500 mg/kg,0%
same,Stab neutrophil,"[1]; 500 mg/kg, 1 month, control 0.8 ± 0.4",1.0 ± 0.3%
same,REE,"[1]; 500 mg/kg, 1 month, control 2.2 ± 0.4",2.0 ± 0.3 mm/h
same,Reticulocytes,"[1]; 500 mg/kg, 1 month, control 2.8%0.3",3.1 ± 0.1%
same,Eosinophiles,"[1]; 500 mg/kg, 1 month, control 4.0 + 0.3",3.3 ± 0.7%
same,Erythrocytes,"[1]; 500 mg/kg, 1 month, control 5.6 ± 0.1",5.7 ± 0.2 mln/mm^3
same,Hemoglobin,"[1]; 500 mg/kg, 1 month, control 10.5 ± 0.2",10.7 ± 0.2 mmol/L
same,Leukocyte,"[1]; 500 mg/kg, 1 month, control 17.4 ± 1.3",16.4 ± 1.1 thousand/mm^3
same,Haematocrite,"[1]; 500 mg/kg, 1 month, control 45.9 ± 1.7",47.9 ± 1.1%
same,Average volume of erythrocytes,"[1]; 500 mg/kg, 1 month, control 81.4 ± 1.7",83.5 ± 1.7 Mkm^3
same,"Coagulation, time","[1]; 500 mg/kg, 1 month, control 152 ± 10.2",156 ± 11 s
same,Thrombocytes,"[1]; 500 mg/kg, 1 month, control 707 ± 23",678 ± 18
same,REE,"[1]; 500 mg/kg, 2 months, control 1.4 ± 0.2",1.7 ± 0.3 mm/h
same,Stab neutrophil,"[1]; 500 mg/kg, 2 months, control 2.4 ± 0.4",1.6 ± 0.2%
same,Reticulocytes,"[1]; 500 mg/kg, 2 months, control 2.9 ± 0.2",3.4 ± 0.1%
same,Eosinophiles,"[1]; 500 mg/kg, 2 months, control 4.4 + 1.2",3.8 ± 1.3%
same,Erythrocytes,"[1]; 500 mg/kg, 2 months, control 6.1 ± 0.1",6.4 ± 0.2 mln/mm^3
same,Hemoglobin,"[1]; 500 mg/kg, 2 months, control 11.4 ± 0.2",12.3 ± 0.3 mmol/L
same,Leukocyte,"[1]; 500 mg/kg, 2 months, control 19.1 ± 1.9",20.1 ± 1.7 thousand/mm^3
same,Haematocrite,"[1]; 500 mg/kg, 2 months, control 45.9 ± 1.8",49.4 ± 1.9%
same,Average volume of erythrocytes,"[1]; 500 mg/kg, 2 months, control 74.6 + 1.9",82.1 ± 1.4 Mkm^3
same,"Coagulation, time","[1]; 500 mg/kg, 2 months, control 316 ± 8",3171 ± 12 s
same,Thrombocytes,"[1]; 500 mg/kg, 2 months, control 593 ± 14",628 ± 23
"O=c1[nH][nH]c(=O)c2nccnc12.[Li] [Compound 25, lithium salt of pyrazine[2,3-d]-6H-pyridazine-5,8-dione]","MA - fall of optical density of plasma, % to the standard","thrombocytes; 10^−3 M, control 60.8 ± 3.4",48.2 ± 2.9 %
same,"MA - fall of optical density of plasma, % to the standard","thrombocytes; 10^−4 M, control 60.0 ± 2.1",48.6 ± 2.0 %
same,"MA - fall of optical density of plasma, % to the standard","thrombocytes; 10^−5 M, control 52.5 ± 2.1",43.4 ± 3.2 %
same,"MA - drop of optical density, %","thrombocytes; 10^−6 M, control 52.8 ± 1.8",50.3 ± 2.1%
same,"MA - drop of optical density, %","thrombocytes; 10^−7 M, control 51.5 ± 2.1",50.1 ± 3.0%
